Test results reported in US10770169B2, “Method of providing a treatment to a subject based on a dynamic pathway map” (THE REGENTS OF THE UNIVERSITY OF CALIFORNIA, priority 2010, dated 2020).
“Also recorded” adds a separate entry of the source.

Assays:
[1] = test system: panel of 55 breast cancer cell lines; assay: Cell growth inhibition assay (Cell Titer Glo, 72 h, 9 doses; GI50, TGI, LC50); assay type: cell-based, human; settings: value is the negative log10 of mol/L
[2] = test system: luminal, basal, claudin-low and ERBB2AMP breast cancer cell lines; assay: Associations of clinically relevant subtypes and response (non-parametric ANOVA or t-test on GI50 ranks); assay type: cell-based, human; settings: for Subtype specificity: Table 6, most sensitive subtype, FDR p<0.20
From the text: A central premise of this study is that associations between responses and molecular subtypes observed in preclinical cell line analyses will be recapitulated in the clinic in instances where the predictive molecular features in the cell lines are mirrored in human tumors. We established response-subtype associations by using non-parametric ANOVAs to compare […] values across transcriptional and genomics subtypes.
Differences between GI50s of the groups were compared with a non-parametric ANOVA or t-test, as appropriate, on the ranks. We combined the p-values for the three sets of tests and used false discovery rate (FDR) to correct for multiple testing. For the three-sample test, we performed a post-hoc analysis on the compounds with a significant class effect by comparing each group to all others to determine which group was most sensitive. The p-values for the post-hoc test were FDR-corrected together. In all cases, FDR p<0.20 was deemed significant. […] Analyses were performed in R.

[3] = BT20 cell line, censored GI50 values
[4] = HCC38 cell line, censored GI50 values
[5] = HCC70 cell line, censored GI50 values
[6] = HCC1143 cell line, censored GI50 values
[7] = HCC1187 cell line, censored GI50 values
[8] = HCC1419 cell line, censored GI50 values
[9] = HCC1428 cell line, censored GI50 values
[10] = HCC1500 cell line, censored GI50 values
[11] = HCC2185 cell line, censored GI50 values
[12] = HCC3153 cell line, censored GI50 values
[13] = MDAMB134VI cell line, censored GI50 values
[14] = MDAMB361 cell line, censored GI50 values
[15] = MDAMB436 cell line, censored GI50 values
[16] = MDAMB468 cell line, censored GI50 values
[17] = SUM52PE cell line, censored GI50 values
[18] = SUM149PT cell line, censored GI50 values
[19] = SUM159PT cell line, censored GI50 values
[20] = SUM1315MO2 cell line, censored GI50 values

Work on `Cc1cc(Nc2cc(N3CCN(C)CC3)nc(Sc3ccc(NC(=O)C4CC4)cc3)n2)n[nH]1` [VX-680] yielded a GI50 ([1]; AU565 cell line, censored GI50 values) of 5.66, a GI50 [1, 3] of 4.72 and a GI50 ([1]; BT474 cell line, censored GI50 values) of 4.54. It also gave a GI50 ([1]; BT483 cell line, censored GI50 values) of 5.44, a GI50 [1, 4] of 6.94 and a GI50 [1, 5] of 5.35. It also gave a GI50 [1, 6] of 5.98, a GI50 [1, 7] of 6.93 and a GI50 [1, 8] of 4.81. It also gave a GI50 [1, 9] of 5.10, a GI50 [1, 10] of 4.56 and a GI50 ([1]; HCC1937 cell line, censored GI50 values) of 5.10. For the same compound, the GI50 [1, 11] was 6.46, the GI50 [1, 12] was 4.76 and the GI50 ([1]; MCF7 cell line, censored GI50 values) was 5.08. For the same compound, the GI50 [1, 13] was 6.11, the GI50 ([1]; MDAMB175VII cell line, censored GI50 values) was 4.61 and the GI50 [1, 14] was 5.63. For the same compound, the GI50 ([1]; MDAMB415 cell line, censored GI50 values) was 4.86, the GI50 [1, 15] was 6.19 and the GI50 ([1]; MDAMB453 cell line, censored GI50 values) was 5.03. For the same compound, the GI50 [1, 16] was 6.95, the GI50 [1, 17] was 6.41 and the GI50 [1, 18] was 5.07. The GI50 [1, 19] was 6.37, the GI50 ([1]; SUM185PE cell line, censored GI50 values) was 5.62 and the GI50 [1, 20] was 5.65. For the same compound, the GI50 ([1]; T47D cell line, censored GI50 values) was 5.03, the GI50 ([1]; ZR75B cell line, censored GI50 values) was 6.79 and the GI50 ([1]; ZR751 cell line, censored GI50 values) was 5.27. For the same compound, the GI50 ([1]; cell line AU565) was 5.66, the GI50 ([1]; cell line BT20) was 4.72 and the GI50 ([1]; cell line BT474) was 4.54. For the same compound, the GI50 ([1]; cell line BT483) was 5.44, the GI50 ([1]; cell line CAMA1) was 4.58 and the GI50 ([1]; cell line HCC38) was 6.94. It also gave a GI50 ([1]; cell line HCC70) of 5.35, a GI50 ([1]; cell line HCC1143) of 5.98 and a GI50 ([1]; cell line HCC1187) of 6.93. It also gave a GI50 ([1]; cell line HCC1419) of 4.81, a GI50 ([1]; cell line HCC1428) of 5.10 and a GI50 ([1]; cell line HCC1500) of 4.56. The GI50 ([1]; cell line HCC1937) was 5.10, the GI50 ([1]; cell line HCC1954) was 4.48 and the GI50 ([1]; cell line HCC2185) was 6.46. It also gave a GI50 ([1]; cell line HCC3153) of 4.76, a GI50 ([1]; cell line MCF7) of 5.08 and a GI50 ([1]; cell line MDAMB134V) of 6.11. It also gave a GI50 ([1]; cell line MDAMB175V) of 4.61, a GI50 ([1]; cell line MDAMB361) of 5.63 and a GI50 ([1]; cell line MDAMB415) of 4.86. It also gave a GI50 ([1]; cell line MDAMB436) of 6.19, a GI50 ([1]; cell line MDAMB453) of 5.03 and a GI50 ([1]; cell line MDAMB468) of 6.95. It also gave a GI50 ([1]; cell line SKBR3) of 4.48, a GI50 ([1]; cell line SUM52PE) of 6.41 and a GI50 ([1]; cell line SUM149PT) of 5.07. For the same compound, the GI50 ([1]; cell line SUM159PT) was 6.37, the GI50 ([1]; cell line SUM185PE) was 5.62 and the GI50 ([1]; cell line SUM1315MO) was 5.65. For the same compound, the GI50 ([1]; cell line T47D) was 5.03, the GI50 ([1]; cell line UACC812) was 4.50 and the GI50 ([1]; cell line ZR75B) was 6.79. For the same compound, the GI50 ([1]; cell line ZR751) was 5.27, the “association of response with ERBB2 amplification” value [2] was “negatively associated with ERBB2 amplification” and the “subtype-specific response (sensitivity by transcriptional subtype)” value ([2]; GI50 across subtypes) was “ERBB2^AMP cell lines were resistant; also recorded: ERBB2AMP cell lines are resistant”. For the same compound, the Subtype specificity [2] was “not ERBB2AMP”.
For `NC(=O)Nc1sc(-c2ccc(F)cc2)cc1C(N)=O` [TPCA-1], the GI50 [1, 3] was 4.36, the GI50 [1, 4] was 5.50 and the GI50 [1, 5] was 5.44. The GI50 [1, 6] was 5.07, the GI50 [1, 7] was 5.67 and the GI50 ([1]; HCC1395 cell line, censored GI50 values) was 5.22. For the same compound, the GI50 [1, 8] was 5.53, the GI50 [1, 9] was 5.45 and the GI50 [1, 10] was 5.39. The GI50 ([1]; HCC1806 cell line, censored GI50 values) was 5.34, the GI50 ([1]; HCC1954 cell line, censored GI50 values) was 4.77 and the GI50 [1, 11] was 5.36. It also gave a GI50 [1, 12] of 4.87, a GI50 ([1]; LY2 cell line, censored GI50 values) of 4.54 and a GI50 [1, 13] of 4.79. For the same compound, the GI50 ([1]; MDAMB231 cell line, censored GI50 values) was 4.45, the GI50 [1, 14] was 4.18 and the GI50 [1, 15] was 5.16. It also gave a GI50 [1, 16] of 5.94, a GI50 [1, 17] of 6.25 and a GI50 [1, 18] of 5.78. For the same compound, the GI50 [1, 19] was 5.81, the GI50 [1, 20] was 6.09 and the GI50 ([1]; UACC893 cell line, censored GI50 values) was 5.21. The GI50 ([1]; cell line 600MPE) was 4.18, the GI50 ([1]; cell line AU565) was 4.18 and the GI50 ([1]; cell line BT20) was 4.36. It also gave a GI50 ([1]; cell line BT474) of 4.18, a GI50 ([1]; cell line BT549) of 4.18 and a GI50 ([1]; cell line HCC38) of 5.50. For the same compound, the GI50 ([1]; cell line HCC70) was 5.44, the GI50 ([1]; cell line HCC202) was 3.88 and the GI50 ([1]; cell line HCC1143) was 5.07. For the same compound, the GI50 ([1]; cell line HCC1187) was 5.67, the GI50 ([1]; cell line HCC1395) was 5.22 and the GI50 ([1]; cell line HCC1419) was 5.53. The GI50 ([1]; cell line HCC1428) was 5.45, the GI50 ([1]; cell line HCC1500) was 5.39 and the GI50 ([1]; cell line HCC1806) was 5.34. The GI50 ([1]; cell line HCC1937) was 4.18, the GI50 ([1]; cell line HCC1954) was 4.77 and the GI50 ([1]; cell line HCC2185) was 5.36. For the same compound, the GI50 ([1]; cell line HCC3153) was 4.87, the GI50 ([1]; cell line LY2) was 4.54 and the Subtype specificity [2] was “Basal + Claudin-low”.
